PMC11053681, “Gold(I) and Silver(I) Complexes Containing Hybrid Sulfonamide/Thiourea Ligands as Potential Leishmanicidal Agents” (Pharmaceutics, 2024)
Like-named read-outs stand apart in the source and are kept apart here.

Tests used:
Leishmania braziliensis = test: Leishmanicidal activity against promastigotes (resazurin); format: cell-based; conditions: for IC50: promastigote form, 24 h treatment, resazurin, read-out: IC50 L. braziliensis; for SI L. braziliensis: selectivity index = CC50 (Vero) / IC50 (L. braziliensis promastigotes)
Method: (§1) The Leishmania infantum and Leishmania braziliensis strains were maintained in Schneider medium supplemented with 20% of SFB (Schneider 20%), cultivated in […] bottles and stored at 28 °C in a BOD oven. For the assays, parasites at the 5th day stationary growth phase were used.
(§2) The promastigotes metacyclic form of Leishmania infantum and Leishmania braziliensis were first filtered with an insulin syringe to break up rosettes and, then, were isolated from the culture in the stationary phase by centrifugation of 400× g for 4 min at a temperature of 4 °C [53]. The supernatant was subjected to a new centrifugation, heavier, of 2000× g for 30 min, also at 4 °C. The supernatant was discarded and the cell pallet formed from this centrifugation was resuspended in 10 mL of 10% Schneider medium. The process ensured the removal of cellular debris and dead parasites, as well as possible crystals from the culture medium, so that the quality of the experiment was guaranteed. Then, the promastigotes were diluted to 1:10 in paraformaldehyde (PFA) for counting in a Neubauer Chamber, with the concentrations adjusted for each experiment.
(§3) An amount of 1 × 10^7 parasites per well was used. The parasites were plated in 96-well plates. Then, the compounds were added in triplicate, starting at a concentration of 500 µM, with serial dilutions being performed up to a concentration of 3.9 µM [53]. The treatment was carried out for 24 h and, after adding 5 µL of resazurin, the fluorescence was read using a Enspire model spectrofluorometer (Perkin-Elmer, Waltham, MA, USA).

Leishmania infantum = test: as above; format: cell-based; conditions: for IC50: promastigote form, 24 h treatment, resazurin, read-out: IC50 L. infantum; for SI L. infantum: selectivity index = CC50 (Vero) / IC50 (L. infantum promastigotes)
Method: as §1, §2, §3

[1] = Solubility in buffer for the fluorescence experiments; format: physicochemical; conditions: Tris-HCl buffer
Method: (§4) The compounds were solubilized in DMSO and then we made successive dilutions in a Tris-HCl 25 mmol L^−1 buffer, pH 8.0, containing 100 mmol L^−1 of NaCl. For all experiments, the final concentration of DMSO was kept constant and equal to 2.5%. Solutions with increasing concentrations of ligand and constant concentration of LbOYE (1 µmol L^−1) were prepared, which were kept at 25 °C for a period of 1h before acquisition of fluorescence emission spectra.
After the synthesis and structural characterization of the compounds, studies of interaction of the compounds and the recombinant LbOYE were carried out by fluorescence measurements.

LbOYE [2] = target: T1, LbOYE (Leishmania braziliensis, UniProt A4H6Z3); test: Suppression of intrinsic tryptophan fluorescence of LbOYE; format: binding; conditions: 25 °C
T1 sequence (A4H6Z3 entry or part of it): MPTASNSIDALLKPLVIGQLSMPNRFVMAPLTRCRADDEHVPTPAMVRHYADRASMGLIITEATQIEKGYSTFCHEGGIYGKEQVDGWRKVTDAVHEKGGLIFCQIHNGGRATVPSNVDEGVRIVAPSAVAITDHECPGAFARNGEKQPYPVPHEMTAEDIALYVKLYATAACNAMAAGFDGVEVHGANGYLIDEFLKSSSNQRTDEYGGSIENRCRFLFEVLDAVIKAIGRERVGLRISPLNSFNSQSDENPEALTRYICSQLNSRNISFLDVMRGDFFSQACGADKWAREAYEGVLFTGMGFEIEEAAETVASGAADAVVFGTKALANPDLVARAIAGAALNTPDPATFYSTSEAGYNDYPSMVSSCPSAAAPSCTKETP
Text: The recombinant LbOYE protein was produced using the methodology previously described. Briefly, the protein was expressed in strains of bacterial Escherichia coli BL21(DE3) through induction by IPTG using the pET28a:LbOYE vector. The enzyme was purified through a chromatography step of capture by nickel affinity, as the pET28a vector allows the expression of a polyhistidine fusion peptide, located at the N-terminal end of the protein. After affinity purification, the polyhistidine tail was excised by “overnight” incubation with thrombin, and the second purification step was performed using size exclusion chromatography. Purification was evaluated by SDS-PAGE and protein concentration was estimated by spectrophotometry.
The emission spectra of the intrinsic fluorescence of the tryptophan were recorded using a Shimadzu F-4500 spectrofluorometer in the range of 310–420 nm, with opening of slits of excitation and emission at 5.0 nm and λex = 295 nm. Interaction analyzes between LbOYE and ligands were performed at λmax = 333 nm.
as §4
The results were obtained from the fluorescence emission spectra of the intrinsic tryptophan probe in the presence of the compounds HL1^Ch, HL3^FPh, HL5^NO2Ph, [Au(HL1^Ch)2]Cl and [Ag(HL3^FPh)2]NO3. The bonding parameters were determined by the Hill plot, obtaining the dissociation constant (Kd) through the non-linear adjustment of the saturation curve to the experimental data. The double-log plot was used to determine the bonding constant and the number of bonding sites (n). It also allows the calculation of the bonding constant (Kb) and Kd from 1/Kb.
Equation (1)—Hill’s equation:(1) F0−F/F0=[L]/L+Kd
Equation (2)—Double-log:(2) logF0−F/F0=nlogKb−nlog1/L−(F0−F)[P0]/F
Equation (3)—Equation of Stern–Volmer:(3) F0/F=1+KSV[L]
The study of fluorescence quenching can be affected when the ligand has absorption bands that coincide with excitation and emission wavelengths of fluorescence. This interference is called the internal filter effect, which can be minimized using the procedure described by Equation (4). Fobs and Fcor are the fluorescence intensities at 333 nm measured and corrected, respectively; l represents the optical step where the absorption and emission of light occurs and C0 is the concentration of the ligand.
For the correction of the internal filter effect, were used the molar absorptivity coefficient values in the excitation (295 nm) and emission (333 nm) lengths, [λ/ε (L mol^−1 cm^−1)]; HL1^Ch (εex = 373 and εem = 117), HL3^FPh (εex = 1191 and εem = 57), HL5^NO2Ph (εex = 6162 and εem = 9124), Au1 (εex = 7045 and εem = 4008) and Ag3 (εex = 9431 and εem = 3281).

Vero cells [3] = test: Cytotoxicity assay on Vero cells (resazurin); format: cell-based, African green monkey; conditions: 24 h treatment
Method: For the experiment, Vero cells (ATCC CRL-1587) were used in Roswell Parl Memorial Institute (RPMI) medium with 10% fetal bovine serum (FBS) (RPMI 10%) and 20 μg/mL of Gentamicin. They were cultivated in culture bottles of […] and kept in an oven at 37 °C with 5% carbon dioxide (CO2). When picked or used on the day of the experiment, the cells were detached from the wall of the bottles with saline and 1X trypsin/EDTA. To find out how many cells there were in the bottle, it was diluted in Turkey liquid and then we proceeded with the counting in the Neubauer Chamber to calculate the desired concentrations. The Vero cells were plated at […] cells per well, in 96-well plates, and kept in an incubator with 5% CO2 at 37 °C for 24 h. Then, the compounds were added in triplicate, starting at a concentration of 500 µM, with serial dilution being performed up to a concentration of 3.9 µM [54]. The treatment was carried out for 24 h, and, after adding 5 µL of resazurin, the fluorescence was read using a spectrofluorometer (EnSpire Perkin-Elmer, Waltham, MA, USA).

LbOYE [4] = target: T1, LbOYE; test: LbOYE enzyme kinetics (NADPH decay at 340 nm); format: biochemical; conditions: 20 µmol L^−1 compound, 1 µmol L^−1 LbOYE, 100 µmol L^−1 NADPH; substrates NEM and O2
Method: The initial rates were obtained through the decay of the band at 340 nm referring to the maximum absorption of the NADPH (Nicotinamide Adenine Dinucleotide Phosphate) reducer, as previously reported. Solutions containing 1 µmol L^−1 of LbOYE, DMSO or 20 µmol L^−1 of the tested compounds from a stock solution at a concentration of 5 mmol L^−1 in DMSO were prepared in the presence and absence of the substrate N-Ethylmaleimide (NEM). These solutions were left for 30 min at room temperature. After 30 min, the NADPH reducer was added at a final concentration of 100 µmol L^−1.
Figure 7 Initial velocity (V0) for the reaction between 1 µmol L^−1 of LbOYE and 100 µmol L^−1 of NADPH in the presence of DMSO (control) or 20 µmol L^−1 of the compounds tested. Using (A) 100 µmol L^−1 of NEM in the presence of O2 and (B) absence of NEM in the presence of O2. Experiments carried out in phosphate buffer 25 mmol L^−1 pH 7.0, NaCl 100 mmol L^−1.

[5] = Solubility in organic solvents; format: physicochemical
L. braziliensis = tested on: L. braziliensis; design: method as in PMID 32830445; conditions: activity against L. braziliensis and cytotoxicity on macrophages; cited from earlier work
Vero cells [6] = tested on: Vero cells; design: method as in PMID 31152929; conditions: value for the reference drug in Table 5; cited from earlier work

Compound | IC50 (Leishmania braziliensis) [µM] | SI L. braziliensis (Leishmania braziliensis) | IC50 (Leishmania infantum) [µM] | SI L. infantum (Leishmania infantum) | Solubility in buffer at the concentrations for the fluorescence experiments, in words [1] | Kd (LbOYE [2]; Hill plot (n = 1), Equation (1), Tris-HCl pH 8.0, 2.5% DMSO, read-out: Kd * (Hill plot)) [µM] | Ksv *** (Stern–Volmer constant) (LbOYE [2]; Stern–Volmer, Equation (3)) | Kd (LbOYE [2]; double log, Equation (2), Kd = 1/Kb, read-out: Kd ** (double log) (converted)) [µM] | n ** (number of bonding sites) (LbOYE [2]; double log, Equation (2)) | CC50 (Vero cells [3]) [µM] | Inhibition of LbOYE reaction (initial velocity V0), in words (LbOYE [4]) | Solubility in solvents, in words [5] | SI (L. braziliensis) | CC50 (Vero cells [6]) [µM]
Cc1ccc(S(=O)(=O)NNC(NC2CCCCC2)=[S][Au+][S]=C(NNS(=O)(=O)c2ccc(C)cc2)NC2CCCCC2)cc1.[Cl-] [Au1, [Au(HL1^Ch)2]Cl] | 77.38 ± 0.018 | 0.26 | 105 ± 3.14 | 0.19 | passed this stage | 110 ± 30 | 2.4 ± 0.2 × 10^4 | 39 ± 3 | 1.8 ± 0.1 | 19.9 | demonstrates capacity of inhibition, although less than the Ag3 | – | – | –
Cc1ccc(S(=O)(=O)NNC(Nc2ccc(Cl)cc2)=[S][Au+][S]=C(NNS(=O)(=O)c2ccc(C)cc2)Nc2ccc(Cl)cc2)cc1.[Cl-] [Au4, [Au(HL4^ClPh)2]Cl] | 277.6 ± 0.163 | 0.12 | 38.18 ± 0.158 | 0.84 | – | – | – | – | – | 32 | – | low solubility | – | –
C[C@@H]1[C@H](O)[C@@H](C)/C=C/C=C/C=C/C=C/C=C/C=C/C=C/[C@H](O[C@@H]2O[C@H](C)[C@@H](O)[C@H](N)[C@@H]2O)C[C@@H]2O[C@](O)(C[C@@H](O)C[C@@H](O)[C@H](O)CC[C@@H](O)C[C@@H](O)CC(=O)O[C@H]1C)C[C@H](O)[C@H]2C(=O)O [amphotericin B] | – | – | – | – | – | – | – | – | – | – | – | – | 6.8 | –
Glucantime [reference compound] | 176 to 192 | – | 113 to 130 | – | – | – | – | – | – | – | – | – | – | 1630
